This experiment addresses T1, GTPase KRas [1-169,G12C,C118A] (Homo sapiens, UniProt P01116, C118A/G12C).
T1 construct: 1-169

The term IC50 denotes the point on the concentration scale where inhibition reaches its midpoint. Lower therefore signals higher potency.

Structures are written as SMILES.

T1 sequence (P01116 1-169 G12C/C118A): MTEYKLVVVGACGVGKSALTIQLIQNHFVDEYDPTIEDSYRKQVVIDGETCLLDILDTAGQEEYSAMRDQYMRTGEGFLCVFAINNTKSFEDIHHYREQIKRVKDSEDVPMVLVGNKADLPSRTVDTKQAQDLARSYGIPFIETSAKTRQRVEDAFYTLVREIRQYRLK

In the case of `C=CC(=O)N1CC2(CCN(c3nc4c(c(N[C@@H](CC(C)C)Cn5ccnn5)n3)CCC(C)(C)C4)C2)C1` [WO2022093856, Example 1-47], the IC50 was found to be 822 nM.

Values taken from BindingDB's records for patent WO2022093856 (AMGEN INC., 2022).
